Measurements taken from ChEMBL document CHEMBL1126258, “4-[2-[Methyl(2-phenethyl)amino]-2-oxoethyl]-8-(phenylmethoxy)-2- naphthalenecarboxylic acid: a high affinity, competitive, orally active leukotriene B4 receptor antagonist” (J Med Chem, 1992).
pIC50: −log10 of the molar value. Blank lines part the entries; values can stand above or below the compound they belong to.

What was measured:
[1] = target: T1, Leukotriene B4 receptor 1 (Homo sapiens, UniProt Q15722); assay: Antagonistic activity in human polymorphonuclear (PMN) LTB4 receptor; type: functional
T1 sequence (Q15722 whole entry): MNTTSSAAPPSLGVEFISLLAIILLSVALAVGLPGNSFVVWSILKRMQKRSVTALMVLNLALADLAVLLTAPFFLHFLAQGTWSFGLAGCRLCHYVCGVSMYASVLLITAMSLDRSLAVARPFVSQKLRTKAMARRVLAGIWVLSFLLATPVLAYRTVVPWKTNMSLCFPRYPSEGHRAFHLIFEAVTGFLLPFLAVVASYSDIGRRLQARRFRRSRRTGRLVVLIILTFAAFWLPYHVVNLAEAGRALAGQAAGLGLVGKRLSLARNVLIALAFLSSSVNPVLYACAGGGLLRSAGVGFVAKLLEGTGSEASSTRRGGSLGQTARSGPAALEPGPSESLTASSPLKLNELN

[2] = Effect on LTB4-induced neutrophil function (neutropenia) after systemic administration of 0.3 micro/kg to cynomolgus monkey.; type: functional, Cercopithecidae
[3] = Effect on LTB4-induced neutrophil function (neutrophilia) after systemic administration of 0.3 micro/kg to cynomolgus monkey.; type: functional, Cercopithecidae
[4] = target: T1, Leukotriene B4 receptor 1; assay: Antagonistic activity against human polymorphonuclear (PMN) LTB4 receptor; type: functional

- pIC50 [1]: 5.33
SMILES: CN(CCc1ccccc1)C(=O)Cc1ccc(OCc2ccccc2)cc1

SMILES: CN(CCc1ccccc1)C(=O)Cc1cc(C(=O)O)cc2c(OCc3ccccc3)cccc12
- Inhibition [2]: 61%
- Inhibition [3]: 73%

- pIC50 [4]: 7.92
SMILES: COc1ccc(/C=C/CCCCOc2ccc(C(=O)c3cccc(C(=O)O)c3)cc2CCC(=O)O)cc1
